Results as given in patent publication US8609660B2, “4,7-dihydro-pyrazolo[1,5-a]pyrazin-6-ylamine derivatives useful as inhibitors of beta-secretase (BACE)” (Janssen Pharmaceutica NV, priority 2010, dated 2013).

Legend:
[1] = molecular target: T1, recombinant BACE1 protein (Homo sapiens, UniProt P56817); test: Biochemical FRET based assay; settings: recombinant BACE1 1 μg/ml, 120 min, room temperature, pH 5.0; for IC50: read-out: Biochemical FRET based assay pIC50 (converted)
T1 construct: recombinant BACE1 protein in a final concentration of 1 μg/ml
T1 sequence (P56817 46-501): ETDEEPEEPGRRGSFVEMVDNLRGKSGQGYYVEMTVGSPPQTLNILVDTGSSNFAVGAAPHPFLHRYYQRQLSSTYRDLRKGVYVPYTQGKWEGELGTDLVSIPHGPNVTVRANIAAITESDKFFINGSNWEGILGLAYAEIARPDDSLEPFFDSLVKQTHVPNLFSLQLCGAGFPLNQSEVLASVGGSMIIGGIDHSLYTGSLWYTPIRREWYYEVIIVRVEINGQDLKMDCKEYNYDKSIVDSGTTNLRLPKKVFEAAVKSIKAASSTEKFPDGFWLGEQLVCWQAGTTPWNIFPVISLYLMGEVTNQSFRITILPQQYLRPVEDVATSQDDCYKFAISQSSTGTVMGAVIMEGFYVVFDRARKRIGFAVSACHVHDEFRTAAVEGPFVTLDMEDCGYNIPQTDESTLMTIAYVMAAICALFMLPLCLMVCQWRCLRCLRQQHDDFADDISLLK
Source text: Biochemical FRET Based Assay This assay is a Fluorescence Resonance Energy Transfer Assay (FRET) based assay. The substrate for this assay is an APP derived 13 amino acids peptide that contains the 'Swedish' […] mutation of the amyloid precursor protein (APP) β-secretase cleavage site. […] Upon cleavage by BACE1, the fluorophore Mca is separated from the quenching group Dnp, restoring the full fluorescence yield of the donor. The increase in fluorescence is linearly related to the rate of proteolysis (Koike H et al. J Biochem. 1999, 126, 235-42). Briefly in a 384-well format recombinant BACE1 protein in a final concentration of 1 μg/ml is incubated for 120 minutes at room temperature with 10 μm substrate in incubation buffer (40 mM Citrate buffer pH 5.0, 0.04% PEG, 4% DMSO) in the absence or presence of compound. Next the amount of proteolysis is directly measured by fluorescence measurement at T=0 and T=120 (excitation at 320 nm and emission at 405 nm). […] [formula]

brain levels of total Aβ = test: In vivo efficacy: brain Aβtotal lowering (ELISA); set-up: species or system mouse; settings: 30 mpk, sc
Source text: (§1) To determine whether acute administration of an Aβ42 peptide lowering agent would reduce Aβ peptide levels in vivo, non-transgenic rodents, e.g. mice or rats were used. Animals treated with the Aβ peptide lowering agent were examined and compared to those untreated or treated with vehicle and brain levels of soluble Aβ42 and total Aβ were quantitated by standard techniques, for example, using ELISA. Treatment periods varied from hours (h) to days and were adjusted based on the results of the Aβ42 lowering once a time course of onset of effect could be established.
(§2) A typical protocol for measuring Aβ42 lowering in vivo is shown but it is only one of many variations that could be used to optimize the levels of detectable Aβ. For example, Aβ peptide lowering compounds were formulated in 20% hydroxypropyl β cyclodextrin. The Aβ peptide lowering agents were administered as a single oral dose (p.o.) or a single subcutaneous dose (s.c.) to overnight fasted animals. After a certain time, usually 2 or 4 h (as indicated in Table 19), the animals were sacrificed and Aβ42 levels were analysed.
(§3) Blood was collected by decapitation and exsanguinations in EDTA-treated collection tubes. […] The left hemisphere was stored at −18° C. for quantitative analysis of test compound levels. […]
(§4) Mouse brains from non-transgenic animals were resuspended in 8 volumes of 0.4% DEA (diethylamine)/50 mM NaCl containing protease inhibitors (Roche-11873580001 or 04693159001) per gram of tissue, e.g. for 0.158 g brain, add 1.264 ml of 0.4% DEA. […] Nine parts of supernatant were neutralized with 1 part 0.5 M Tris-HCl pH 6.8 and used to quantify Aβtotal and Aβ42.
To quantify the amount of Aβtotal and Aβ42 in the soluble fraction of the brain homogenates, Enzyme-Linked-Immunosorbent-Assays were used. […] Following this incubation and subsequent wash steps the ELISA for Aβ42 quantification was finished by addition of Quanta Blu fluorogenic peroxidase substrate according to the manufacturer's instructions (Pierce Corp., Rockford, Ill.). A reading was performed after 10 to 15 min (excitation 320 nm/emission 420 nm). […]

[2] = test system: Aβtotal produced and secreted into the medium of human neuroblastoma SKNBE2 cells; test: Cellular αlisa assay in SKNBE2 cells, Aβtotal; type: cell-based; settings: SKNBE2 cells expressing hAPP695, 18 hours incubation
Procedure: (§5) Cellular αlisa Assay in SKNBE2 Cells In two αlisa assays the levels of Aβtotal and Aβ42 produced and secreted into the medium of human neuroblastoma SKNBE2 cells are quantified. The assay is based on the human neuroblastoma SKNBE2 expressing the wild type Amyloid Precursor Protein (hAPP695). […] Aβtotal and Aβ42 are measured by sandwich α[…] sandwich assay using biotinylated antibody AbN/25 attached to streptavidin coated beads and antibody Ab4G8 or cAb42/26 conjugated acceptor beads for the detection of Aβtotal and Aβ42 respectively. In the presence of Aβtotal or Aβ42, the beads come into close proximity. The excitation of the Donor beads provokes the release of singlet oxygen molecules that triggers a cascade of energy transfer in the Acceptor beads, resulting in light emission. Light emission is measured after 1 hour incubation (excitation at […] and emission at 615 nm). A best-fit curve is fitted by a minimum sum of squares method to the plot of % Controlmin versus compound concentration. […] [formula]

[3] = test system: brain levels of soluble Aβ42; test: In vivo efficacy: brain Aβ42 lowering (ELISA); set-up: species or system mouse; settings: 30 mpk, sc
Source text: as §1, §2, §3, §4
To quantify the amount of Aβtotal and Aβ42 in the soluble fraction of the brain homogenates, Enzyme-Linked-Immunosorbent-Assays were used. […] Following this incubation and subsequent wash steps the ELISA for Aβ42 quantification was finished by addition of Quanta Blu fluorogenic peroxidase substrate according to the manufacturer's instructions (Pierce Corp., Rockford, Ill.). A reading was performed after 10 to 15 min (excitation 320 nm/emission 420 nm).

[4] = test system: Aβ42 produced and secreted into the medium of human neuroblastoma SKNBE2 cells; test: Cellular αlisa assay in SKNBE2 cells, Aβ42; type: cell-based; settings: SKNBE2 cells expressing hAPP695, 18 hours incubation
Procedure: as §5

| IC50 [1] [nM] | melting point [°C] | IC50 ([2]; Homo sapiens, SKNBE2, 18 h, read-out: Cellular αlisa assay in SKNBE2 cells Aβtotal pIC50 (converted)) [nM] | IC50 ([4]; Homo sapiens, SKNBE2, 18 h, read-out: Cellular αlisa assay in SKNBE2 cells Aβ42 pIC50 (converted)) [nM] | Compound | Aβtotal (% Ctrl)_Mean (brain levels of total Aβ; 4 h after administration) [% Ctrl] | Cellular αlisa assay in SKNBE2 cells Aβtotal pIC50 [2] | Aβ42 (% Ctrl)_Mean ([3]; 4 h after administration) [% Ctrl] | Cellular αlisa assay in SKNBE2 cells Aβ42 pIC50 [4] | Biochemical FRET based assay pIC50 [1] | Aβtotal (% Ctrl)_Mean (brain levels of total Aβ; 2 h after administration) [% Ctrl] | Aβ42 (% Ctrl)_Mean ([3]; 2 h after administration) [% Ctrl] |
| --- | --- | --- | --- | --- | --- | --- | --- | --- | --- | --- | --- |
| 42.7 | – | – | – | CC1(c2cc(NC(=O)c3ccc(Cl)cn3)ccc2F)N=C(N)Cn2nccc21 (single isomer, unassigned) [Compound 11, (R*)—N-[3-(6-amino-4-methyl-4,7-dihydropyrazolo[1,5-a]pyrazin-4-yl)-4-fluorophenyl]-5-chloropyridine-2-carboxamide] | 80 | 8.37 | 71 | 8.36 | – | – | – |
| – | – | – | – | CC1(c2cccc(-c3cc(Cl)cc(Cl)c3)c2)N=C(N)Cn2nccc21 (stereo not shown) [Compound 20] | – | 6.37 | – | 6.33 | 6.76 | 80 | 86 |
| 1660 | 191.8 | 105 | 112 | COc1cncc(-c2cccc(C3(C)N=C(N)Cn4nccc43)c2)c1 (racemic) [Compound 2, rac-4-[3-(5-methoxypyridin-3-yl)-phenyl]-4-methyl-4,7-dihydropyrazolo[1,5-a]pyrazin-6-amine] | 116 | – | 109 | – | – | – | – |
